Consider three compounds from EP0058890A1, “Antithrombotic compounds” (THE WELLCOME FOUNDATION LIMITED, priority 1981, dated 1982).

One series relates to adjuvant arthritis. The series is described as follows: Adjuvant Arthritis Assay (Chronic). It counts as in vivo, rat. The following applies: po, 336 h, read-out: ED50, development of adjuvant arthritis.
The next series relates to gastric damage. It counts as in vivo. The following applies: rat.
The subject of a further series is exudate fluid volume. In words: Carrageenin Pleurisy Assay (Acute). The following applies: 3 h, read-out: 3 hr. ED50 against exudate fluid volume. It counts as in vivo, rat. From the text:
a. […] In this assay, the 3 hr.

Series [1] concerns subplantar injection of trypsin. The series is described as follows: Modified Trypsin Hyperalgesic Assay. It counts as in vivo. The following applies: drug administration 15 minutes before subplantar trypsin.
Another series relates to dog platelets. In words: Ex vivo platelet aggregation after oral dosing, dog. It counts as in vivo. The following applies: Canis lupus familiaris, for as long as 6 hr. How it is done: (§1) b. Ex vivo studies: The aggregation of platelets taken from animals dosed by the oral route with Compound II is inhibited when tested with arachidonate and collagen by the method of Born ((1962) Nature 194, 927, 929). The dose required to inhibit aggregation rate by 50% (ED50) at 1 hour was 5 mg/kg and 10 mg/kg in the guinea pig and rat, respectively. By comparison, the ED50 for aspirin in the guinea pig was 30 mg/kg, while the ED50 for aspirin in the rat was 10 mg/kg. The ED50 for indomethacin was 10 mg/kg and 5 mg/kg in the guinea pig and rat, respectively. In the dog, 10 mg/kg p.o. was an ED50 for as long as 6 hr.

Series [2] has as its system platelets. The series is described as follows: Ex vivo platelet aggregation after oral dosing, arachidonate and collagen (method of Born), rat. It counts as in vivo. The following applies: read-out: dose required to inhibit aggregation rate by 50% (ED50). How it is done: as §1
Series [3] concerns platelets. The series is described as follows: Ex vivo platelet aggregation after oral dosing, arachidonate and collagen (method of Born), guinea pig. It counts as in vivo. The following applies: Cavia porcellus, read-out: dose required to inhibit aggregation rate by 50% (ED50). How it is done:
as §1

The test system of a further series is gastric erosion. It counts as in vivo. The following applies: guinea pig.
The test system of series [4] is Yeast-induced hyperthermia. In words: Yeast-Induced Hyperthermia Assay. It counts as in vivo, rat.
Series [5] deals with stasis-induced jugular vein thrombosis. In words: Protection against stasis-induced jugular vein thrombosis. It counts as in vivo. The following applies: guinea pig; given 1 hour prior to ligation. How it is done:
b. Protection against stasis-induced jugular vein thrombosis: When a 1 cm length of guinea pig jugular vein is ligated in situ, a thrombus forms within 30 min. Six mg/kg p.o. of either Compound II or aspirin given 1 hour prior to ligation protected 50% of the animals from thrombosis.

Like-named read-outs stand apart in the source and are kept apart here.

On to `CN(C)CCOc1ccccc1-c1nc(-c2ccccc2)c(-c2ccccc2)[nH]1` [Compound II], for which the 50% effective dose (ED50) was 294 mg/kg in the series on adjuvant arthritis (rat, by gavage for 14 days); 37 mg/kg with exudate fluid volume (rat, oral route); ~50 mg/kg in series [1] (read-out: ED50); 10 mg/kg in the series on dog platelets; 10 mg/kg with platelets [2] (rat, oral route, at 1 hour, arachidonate and collagen); 5 mg/kg in the series on platelets [3] (guinea pig, oral route, at 1 hour, arachidonate and collagen). The gastric damage entry in the series on gastric damage (in vivo, po, 75 mg/kg/day) is given as “does not produce gastric damage”; in the series with gastric damage (in vivo, po, 150 mg/kg) it was “does not produce gastric damage”; in the series with gastric erosion (in vivo, po, 100 mg/kg/day), “very slight gastric erosion”.
Consider `CC(=O)Oc1ccccc1C(=O)O` [aspirin], for which the ED50 in the series on adjuvant arthritis (Rattus norvegicus) was 175 mg/kg; in [4] (Rattus norvegicus, po), 50 mg/kg; with exudate fluid volume (Rattus norvegicus, po), 28 mg/kg; in [1], “inactive”; with platelets [2] (Rattus norvegicus, po, 1 h), 10 mg/kg; in the series on platelets [3] (po, 1 h) it was 30 mg/kg. Also, the hypothermia result in [4] (rat, for Compound II 3-4 hours after dosing) is on record as “does not produce hypothermia”. Also, the gastric damage result in the series on gastric damage (single oral dose of 30 mg/kg) was “produces ulcers and hemorrhages”; in the series on gastric erosion (100 mg/kg/day p.o. for 3 days) it was “severe ulceration and hemorrhage”. In addition, in [5], the “dose that protected 50% of the animals from thrombosis” value is “Six”.
On to `COc1ccc2c(c1)c(CC(=O)O)c(C)n2C(=O)c1ccc(Cl)cc1` [indomethacin], for which the median effective dose (ED50) was 1 mg/kg in the series with adjuvant arthritis (Rattus norvegicus); 2 mg/kg in the series on exudate fluid volume (Rattus norvegicus, po); “inactive” in series [1]; 5 mg/kg in the series with platelets [2] (Rattus norvegicus, po, 1 h); 10 mg/kg in the series on platelets [3] (po, 1 h). In the series with gastric damage (single oral dose of 5 mg/kg), the gastric damage entry is listed as “produces ulcers”.

As a reminder, the ED50 is the midpoint of the dose-response relation.
